Legend:
Format in all cases: in vivo
[1] = system: redroot pigweed (Amaranthus retroflexus); assay: Test G Pre-Emergence Protocol; conditions: evaluated after 13 days; for plant damage rating, Pigweed, Redroot: 62.5 g ai/ha, 100=total damage to plant, 0=no damage to plant
Description: (§1) Seeds of corn (Zea mays), giant foxtail (Setaria faberi), barnyardgrass (Echinochloa crus-galli), ivy-leaved morning glory (Ipomoea hederacea), redroot pigweed (Amaranthus retroflexus) and velvetleaf (Abutilon theophrasti) were sown in standard soil in pots. After cultivation for one day under controlled conditions in a glasshouse (at 24/16° C., day/night; 14 hours light; 65% humidity), the plants were sprayed with an aqueous spray solution derived from the formulation of the technical active ingredient in acetone/water (50:50) solution containing 0.5% Tween 20 (polyoxyethylene sorbitan monolaurate, CAS RN 9005-64-5) to give a final dose of 15.625, 62.5 or 250 g/ha of test compound.
(§2) The test plants were then grown on under controlled conditions in a glasshouse (at 24/16° C., day/night; 14 hours light; 65% humidity) and watered twice daily. After 13 days the test was evaluated (100=total damage to plant; 0=no damage to plant). A dash (-) means no test result.

[2] = system: velvetleaf (Abutilon theophrasti); assay: Test G Pre-Emergence Protocol; conditions: evaluated after 13 days; for plant damage rating, Velvetleaf: 62.5 g ai/ha, 100=total damage to plant, 0=no damage to plant
Description: as §1, §2

[3] = system: giant foxtail (Setaria faberi); assay: Test G Pre-Emergence Protocol; conditions: evaluated after 13 days; for plant damage rating, Foxtail, Giant: 62.5 g ai/ha, 100=total damage to plant, 0=no damage to plant
Description: as §1, §2

[4] = system: ivy-leaved morning glory (Ipomoea hederacea); assay: Test G Pre-Emergence Protocol; conditions: evaluated after 13 days; for Morning-glory, Ivy-leaved damage rating (100=total damage to plant; 0=no damage to plant): 15.625 g ai/ha; for plant damage rating, Morningglory, Ivy-leaved: 62.5 g ai/ha, 100=total damage to plant, 0=no damage to plant; for Morningglory, Ivy-leaved damage rating (100=total damage to plant; 0=no damage to plant): 250 g ai/ha
Description: as §1, §2

[5] = system: barnyardgrass (Echinochloa crus-galli); assay: Test G Pre-Emergence Protocol; conditions: evaluated after 13 days; for plant damage rating, Barnyardgrass: 62.5 g ai/ha, 100=total damage to plant, 0=no damage to plant
Description: as §1, §2

corn (Zea mays) [6] = assay: Test G Pre-Emergence Protocol; conditions: evaluated after 13 days; for plant damage rating, Corn: 62.5 g ai/ha, 100=total damage to plant, 0=no damage to plant
Description: as §1, §2

[7] = system: redroot pigweed (Amaranthus retroflexus); assay: Test G Post-Emergence Protocol; conditions: for Pigweed, Redroot damage rating: 15.625 g ai/ha, evaluated after 13 days (100=total damage to plant; 0=no damage to plant); for Pigweed, Redroot damage rating (100=total damage to plant; 0=no damage to plant): 62.5 g ai/ha; for Pigweed, Redroot damage rating (100=total damage to plant; 0=no damage to plant) / damage to plant, Pigweed, Redroot (100=total damage to plant; 0=no damage to plant): evaluated after 13 days; for damage to plant, Pigweed, Redroot (100=total damage to plant; 0=no damage to plant): 250 g ai/ha
Description: as §1, with “8 days” for “one day”
as §2

[8] = system: velvetleaf (Abutilon theophrasti); assay: Test G Post-Emergence Protocol; conditions: for Velvetleaf damage rating: 15.625 g ai/ha, evaluated after 13 days (100=total damage to plant; 0=no damage to plant); for Velvetleaf damage rating (100=total damage to plant; 0=no damage to plant): 62.5 g ai/ha; for Velvetleaf damage rating (100=total damage to plant; 0=no damage to plant) / damage to plant, Velvetleaf (100=total damage to plant; 0=no damage to plant): evaluated after 13 days; for damage to plant, Velvetleaf (100=total damage to plant; 0=no damage to plant): 250 g ai/ha
Description: as §1, with “8 days” for “one day”
as §2

[9] = system: giant foxtail (Setaria faberi); assay: Test G Post-Emergence Protocol; conditions: for Foxtail, Giant damage rating: 15.625 g ai/ha, evaluated after 13 days (100=total damage to plant; 0=no damage to plant); for Foxtail, Giant damage rating (100=total damage to plant; 0=no damage to plant): 62.5 g ai/ha; for Foxtail, Giant damage rating (100=total damage to plant; 0=no damage to plant) / damage to plant, Foxtail, Giant (100=total damage to plant; 0=no damage to plant): evaluated after 13 days; for damage to plant, Foxtail, Giant (100=total damage to plant; 0=no damage to plant): 250 g ai/ha
Description: as §1, with “8 days” for “one day”
as §2

[10] = system: ivy-leaved morning glory (Ipomoea hederacea); assay: Test G Post-Emergence Protocol; conditions: for Morningglory, Ivy-leaved damage rating: 15.625 g ai/ha, evaluated after 13 days (100=total damage to plant; 0=no damage to plant); for Morningglory, Ivy-leaved damage rating (100=total damage to plant; 0=no damage to plant): 62.5 g ai/ha; for Morningglory, Ivy-leaved damage rating (100=total damage to plant; 0=no damage to plant) / damage to plant, Morningglory, Ivy-leaved (100=total damage to plant; 0=no damage to plant): evaluated after 13 days; for damage to plant, Morningglory, Ivy-leaved (100=total damage to plant; 0=no damage to plant): 250 g ai/ha
Description: as §1, with “8 days” for “one day”
as §2

[11] = system: barnyardgrass (Echinochloa crus-galli); assay: Test G Post-Emergence Protocol; conditions: for Barnyardgrass damage rating: 15.625 g ai/ha, evaluated after 13 days (100=total damage to plant; 0=no damage to plant); for Barnyardgrass damage rating (100=total damage to plant; 0=no damage to plant): 62.5 g ai/ha; for Barnyardgrass damage rating (100=total damage to plant; 0=no damage to plant) / damage to plant, Barnyardgrass (100=total damage to plant; 0=no damage to plant): evaluated after 13 days; for damage to plant, Barnyardgrass (100=total damage to plant; 0=no damage to plant): 250 g ai/ha
Description: as §1, with “8 days” for “one day”
as §2

corn (Zea mays) [12] = assay: Test G Post-Emergence Protocol; conditions: for Corn damage rating: 15.625 g ai/ha, evaluated after 13 days (100=total damage to plant; 0=no damage to plant); for Corn damage rating (100=total damage to plant; 0=no damage to plant): 62.5 g ai/ha; for Corn damage rating (100=total damage to plant; 0=no damage to plant) / damage to plant, Corn (100=total damage to plant; 0=no damage to plant): evaluated after 13 days; for damage to plant, Corn (100=total damage to plant; 0=no damage to plant): 250 g ai/ha
Description: as §1, with “8 days” for “one day”
as §2

Row | SMILES | Pigweed, Redroot damage rating (100=total damage to plant; 0=no damage to plant) ([1]; 15.625 g ai/ha) | plant damage rating, Pigweed, Redroot [1] | Pigweed, Redroot damage rating (100=total damage to plant; 0=no damage to plant) ([1]; 250 g ai/ha) | Velvetleaf damage rating (100=total damage to plant; 0=no damage to plant) ([2]; 15.625 g ai/ha) | plant damage rating, Velvetleaf [2] | Velvetleaf damage rating (100=total damage to plant; 0=no damage to plant) ([2]; 250 g ai/ha) | Foxtail, Giant damage rating (100=total damage to plant; 0=no damage to plant) ([3]; 15.625 g ai/ha) | plant damage rating, Foxtail, Giant [3] | Foxtail, Giant damage rating (100=total damage to plant; 0=no damage to plant) ([3]; 250 g ai/ha) | Morning-glory, Ivy-leaved damage rating (100=total damage to plant; 0=no damage to plant) [4] | plant damage rating, Morningglory, Ivy-leaved [4] | Morningglory, Ivy-leaved damage rating (100=total damage to plant; 0=no damage to plant) [4] | Barnyardgrass damage rating (100=total damage to plant; 0=no damage to plant) ([5]; 15.625 g ai/ha) | plant damage rating, Barnyardgrass [5] | Barnyardgrass damage rating (100=total damage to plant; 0=no damage to plant) ([5]; 250 g ai/ha) | Corn damage rating (100=total damage to plant; 0=no damage to plant) (corn (Zea mays) [6]; 15.625 g ai/ha) | plant damage rating, Corn (corn (Zea mays) [6]) | Corn damage rating (100=total damage to plant; 0=no damage to plant) (corn (Zea mays) [6]; 250 g ai/ha) | Pigweed, Redroot damage rating [7] | Pigweed, Redroot damage rating (100=total damage to plant; 0=no damage to plant) [7] | further results
1 | CN1CC(c2ccc(C(F)(F)F)cc2)C(C(=O)Nc2ccncc2[N+](=O)[O-])C1=O (racemic) [Compound 1568] | 0 | 0 | 0 | 0 | 0 | 0 | 0 | 0 | 0 | 0 | 0 | 0 | 0 | 0 | 0 | 0 | 0 | 0 | 0 | 0 | damage to plant, Pigweed, Redroot (100=total damage to plant; 0=no damage to plant) [7]: 0; Velvetleaf damage rating [8]: 0; Velvetleaf damage rating (100=total damage to plant; 0=no damage to plant) [8]: 0; damage to plant, Velvetleaf (100=total damage to plant; 0=no damage to plant) [8]: 0; Foxtail, Giant damage rating [9]: 0; Foxtail, Giant damage rating (100=total damage to plant; 0=no damage to plant) [9]: 0; damage to plant, Foxtail, Giant (100=total damage to plant; 0=no damage to plant) [9]: 0; Morningglory, Ivy-leaved damage rating [10]: 0; Morningglory, Ivy-leaved damage rating (100=total damage to plant; 0=no damage to plant) [10]: 0; damage to plant, Morningglory, Ivy-leaved (100=total damage to plant; 0=no damage to plant) [10]: 0; Barnyardgrass damage rating [11]: 0; Barnyardgrass damage rating (100=total damage to plant; 0=no damage to plant) [11]: 10; damage to plant, Barnyardgrass (100=total damage to plant; 0=no damage to plant) [11]: 20; Corn damage rating (corn (Zea mays) [12]): 0; Corn damage rating (100=total damage to plant; 0=no damage to plant) (corn (Zea mays) [12]): 0; damage to plant, Corn (100=total damage to plant; 0=no damage to plant) (corn (Zea mays) [12]): 10
2 | CN1CC(c2ccc(C(F)(F)F)cc2)C(C(=O)Nc2cccc(Cl)c2[N+](=O)[O-])C1=O (racemic) [Compound 1639] | 0 | 20 | 30 | 0 | 0 | 0 | 30 | 60 | 80 | 0 | 0 | 0 | 0 | 10 | 30 | 0 | 0 | 0 | 0 | 20 | damage to plant, Pigweed, Redroot (100=total damage to plant; 0=no damage to plant) [7]: 60; Velvetleaf damage rating [8]: 0; Velvetleaf damage rating (100=total damage to plant; 0=no damage to plant) [8]: 0; damage to plant, Velvetleaf (100=total damage to plant; 0=no damage to plant) [8]: 20; Foxtail, Giant damage rating [9]: 30; Foxtail, Giant damage rating (100=total damage to plant; 0=no damage to plant) [9]: 70; damage to plant, Foxtail, Giant (100=total damage to plant; 0=no damage to plant) [9]: 80; Morningglory, Ivy-leaved damage rating [10]: 0; Morningglory, Ivy-leaved damage rating (100=total damage to plant; 0=no damage to plant) [10]: 10; damage to plant, Morningglory, Ivy-leaved (100=total damage to plant; 0=no damage to plant) [10]: 20; Barnyardgrass damage rating [11]: 10; Barnyardgrass damage rating (100=total damage to plant; 0=no damage to plant) [11]: 30; damage to plant, Barnyardgrass (100=total damage to plant; 0=no damage to plant) [11]: 60; Corn damage rating (corn (Zea mays) [12]): 0; Corn damage rating (100=total damage to plant; 0=no damage to plant) (corn (Zea mays) [12]): 0; damage to plant, Corn (100=total damage to plant; 0=no damage to plant) (corn (Zea mays) [12]): 10
